Key:
[1] = system: U138 glioblastoma cell line; assay: In-vitro cell survival assay (Alamar blue), U138; assay type: cell-based; settings: 24 h; U138, one day after compound addition
Method: (§1) Five tumor-derived cell lines were treated with the ROS inhibitor compounds and cell survival was monitored to determine the cancer prohibition effects of the compounds. The cell lines included HeLa, a cervical cancer cell line, and four glioblastoma cell lines U138, U87, LN18, and U118. The basic protocol for the in-vitro cell survival assay is the same for all five cell lines. In particular, the cells were seeded in 96-well plates at 2-5×10^3 cells/well (cell line dependent) in culture medium. The cells were grown for 2 days before the compounds were dissolved in DMSO and added to final concentrations of 100 uM, 10 uM, or 1 uM (DMSO final concentration 0.5%). The cell culture was then assayed one day after the addition of the compounds. The assay used Alamar blue as a redox-sensitive dye that interrogates mitochondrial fitness of cells, and these assays provided a readout for cell proliferation and viability. The raw values were normalized to an average of several vehicle control wells and are presented as percent decrease in proliferation/viability, which is converted to half maximal effective concentration (EC50) values.

[2] = system: LN18 glioblastoma cell line; assay: In-vitro cell survival assay (Alamar blue), LN18; assay type: cell-based; settings: Homo sapiens, LN-18, 24 h; LN18, one day after compound addition
Method: as §1

[3] = system: HeLa cervical cancer cell line; assay: In-vitro cell survival assay (Alamar blue), HeLa; assay type: cell-based; settings: Homo sapiens, 24 h, one day after compound addition
Method: as §1

[4] = system: U87 glioblastoma cell line; assay: In-vitro cell survival assay (Alamar blue), U87; assay type: cell-based; settings: 24 h; U87, one day after compound addition
Method: as §1

ROS = ROS (Homo sapiens, UniProt P08922); assay: In vitro ROS enzymatic reaction assay (HTRF, Cisbio); assay type: biochemical; set-up: ROS or EGFR enzyme, 0.008 ng/ul; settings: for inhibition at 10 µM / inhibition at 5 µM / Kinase Inhib. 5 uM (%): ROS kinase; for inhibition at 10 µM: compound at 10 uM, read-out: Kinase Inhib. 10 uM (%); for inhibition at 5 µM / Kinase Inhib. 5 uM (%): compound at 5 uM; for inhibition at 5 µM: read-out: Kinase Inhib. 5 uM (%)
Sequence of ROS (P08922 28-2347): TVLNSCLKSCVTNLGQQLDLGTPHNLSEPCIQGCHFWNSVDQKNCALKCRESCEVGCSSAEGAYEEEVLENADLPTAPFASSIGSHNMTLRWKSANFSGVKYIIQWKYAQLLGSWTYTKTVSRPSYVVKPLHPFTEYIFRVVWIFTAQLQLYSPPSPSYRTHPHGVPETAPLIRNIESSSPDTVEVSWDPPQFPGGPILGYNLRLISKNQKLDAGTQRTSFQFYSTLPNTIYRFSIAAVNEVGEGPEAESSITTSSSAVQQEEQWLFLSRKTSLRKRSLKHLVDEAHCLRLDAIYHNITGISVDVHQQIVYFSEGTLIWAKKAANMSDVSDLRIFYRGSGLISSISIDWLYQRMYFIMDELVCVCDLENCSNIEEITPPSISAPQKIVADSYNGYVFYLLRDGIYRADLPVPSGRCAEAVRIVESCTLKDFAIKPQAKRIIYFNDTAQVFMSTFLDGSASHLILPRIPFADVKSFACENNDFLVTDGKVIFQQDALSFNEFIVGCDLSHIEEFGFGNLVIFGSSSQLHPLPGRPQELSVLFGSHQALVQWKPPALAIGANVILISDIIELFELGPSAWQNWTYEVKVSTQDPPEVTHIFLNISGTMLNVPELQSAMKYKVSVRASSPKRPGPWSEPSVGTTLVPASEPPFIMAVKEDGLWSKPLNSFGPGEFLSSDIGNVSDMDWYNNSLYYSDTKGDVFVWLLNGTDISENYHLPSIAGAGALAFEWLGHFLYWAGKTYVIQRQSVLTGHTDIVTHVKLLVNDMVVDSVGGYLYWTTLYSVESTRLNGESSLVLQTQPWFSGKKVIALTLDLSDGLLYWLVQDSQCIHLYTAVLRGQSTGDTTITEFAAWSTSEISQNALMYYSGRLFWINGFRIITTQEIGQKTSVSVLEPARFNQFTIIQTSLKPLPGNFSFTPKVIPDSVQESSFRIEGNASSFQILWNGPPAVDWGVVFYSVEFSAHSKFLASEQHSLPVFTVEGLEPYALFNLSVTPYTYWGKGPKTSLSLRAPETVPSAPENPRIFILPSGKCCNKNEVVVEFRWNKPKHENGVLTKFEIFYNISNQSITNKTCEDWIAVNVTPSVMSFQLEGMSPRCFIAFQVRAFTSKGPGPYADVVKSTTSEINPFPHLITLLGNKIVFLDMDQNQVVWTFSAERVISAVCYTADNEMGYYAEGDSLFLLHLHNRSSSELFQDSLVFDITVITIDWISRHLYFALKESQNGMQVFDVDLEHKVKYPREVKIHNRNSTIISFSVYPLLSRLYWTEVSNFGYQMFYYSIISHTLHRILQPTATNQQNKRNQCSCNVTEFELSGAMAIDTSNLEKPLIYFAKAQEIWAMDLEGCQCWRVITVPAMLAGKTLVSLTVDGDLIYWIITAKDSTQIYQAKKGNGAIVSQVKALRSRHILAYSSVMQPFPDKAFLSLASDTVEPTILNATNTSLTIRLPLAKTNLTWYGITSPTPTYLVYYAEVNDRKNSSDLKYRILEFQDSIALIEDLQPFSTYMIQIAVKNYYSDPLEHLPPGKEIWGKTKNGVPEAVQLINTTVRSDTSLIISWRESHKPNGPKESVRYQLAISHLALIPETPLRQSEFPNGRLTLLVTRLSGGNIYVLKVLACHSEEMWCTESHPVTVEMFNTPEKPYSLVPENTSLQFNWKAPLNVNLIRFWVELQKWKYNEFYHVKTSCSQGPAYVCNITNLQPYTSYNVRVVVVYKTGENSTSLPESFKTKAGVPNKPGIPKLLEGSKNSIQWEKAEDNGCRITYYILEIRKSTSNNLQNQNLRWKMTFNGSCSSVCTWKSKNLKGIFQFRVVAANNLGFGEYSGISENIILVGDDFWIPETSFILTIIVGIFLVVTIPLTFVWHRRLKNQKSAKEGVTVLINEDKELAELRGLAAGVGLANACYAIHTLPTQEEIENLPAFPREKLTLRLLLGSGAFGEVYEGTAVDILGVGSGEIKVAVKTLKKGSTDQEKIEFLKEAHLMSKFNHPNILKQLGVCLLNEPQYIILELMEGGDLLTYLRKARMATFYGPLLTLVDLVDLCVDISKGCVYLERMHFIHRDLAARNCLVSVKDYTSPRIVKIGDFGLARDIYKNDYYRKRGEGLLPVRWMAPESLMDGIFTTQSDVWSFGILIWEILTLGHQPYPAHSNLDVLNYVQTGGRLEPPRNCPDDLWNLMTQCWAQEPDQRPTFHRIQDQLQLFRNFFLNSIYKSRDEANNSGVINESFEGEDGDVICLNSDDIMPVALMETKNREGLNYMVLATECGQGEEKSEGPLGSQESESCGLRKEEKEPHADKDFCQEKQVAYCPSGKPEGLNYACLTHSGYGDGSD
Method: The ROS enzymatic reactions were carried out with a high throughput screening platform for phosphor-detection of kinase activity. This platform based on homogeneous time resolved fluorescence (HTRF) technology from Cisbio Bioassays, Inc. (Cisbio). […] The reaction was allowed to proceed for 30 minutes at room temperature. An equal volume of detection buffer was then added to the reaction mix.

Compound: CC(C)c1nc(Nc2ccc3ncsc3c2)nc(N2CCCC2)n1 [drawing 451]
- EC50 [1]: 28 µM
- EC50 [2]: 40 µM
- EC50 [3]: 30 µM
- EC50 [4]: > 100 µM

Compound: O=C(O)c1cccc(Nc2ncc(Cl)c(Nc3ccc4ncsc4c3)n2)c1 [drawing 462]
- EC50 [1]: 100 µM
- EC50 [2]: 40 µM
- EC50 [3]: 15 µM
- EC50 [4]: > 100 µM

Compound: CN1CCN(C(=O)c2ccc(Nc3ncc(Cl)c(Nc4ccc5ncsc5c4)n3)cc2)CC1 [drawing 444]
- EC50 [1]: 28 µM
- EC50 [2]: 22 µM
- EC50 [3]: 12 µM
- EC50 [4]: 15 µM

Compound: O=C(c1cccc(Nc2ncc(Cl)c(Nc3ccc4ncsc4c3)n2)c1)N1CCCCC1 [drawing 465]
- EC50 [1]: 15.3 µM
- EC50 [2]: 14 µM
- EC50 [3]: 7 µM
- EC50 [4]: 12 µM

Compound: COc1ccc(N/C=C2\C(=O)NN=C2c2ccccc2)cc1 [drawing 369]
- EC50 [2]: 78 µM
- EC50 [3]: 100 µM

Compound: CC(C)c1nc(Nc2ccc(C(=O)NCc3ccccc3)cc2)nc(Nc2ccc3ncsc3c2)n1 [drawing 459]
- EC50 [1]: 80 µM
- EC50 [2]: 80 µM
- EC50 [3]: 35 µM
- EC50 [4]: 100 µM

Compound: COc1ccc(C2=CCNCC2)cc1Nc1nccc(Nc2ccc3ncsc3c2)n1 [drawing 467]
- EC50 [1]: 6.9 µM
- EC50 [2]: 15 µM
- EC50 [3]: 15 µM
- EC50 [4]: 18 µM

Compound: Cc1ccc(NC=C2C(=O)NN=C2c2ccccc2)cc1 [drawing 370]
- EC50 [2]: 52 µM
- EC50 [3]: > 100 µM

Compound: CC(C)c1nc(Nc2ccc(C(=O)NC3CCCCC3)cc2)nc(Nc2ccc3ncsc3c2)n1 [drawing 456]
- EC50 [1]: 40 µM
- EC50 [2]: 30 µM
- EC50 [3]: 28 µM
- EC50 [4]: 45 µM

Compound: NC1CCN(C(=O)c2cccc(Nc3ncc(Cl)c(Nc4ccc5ncsc5c4)n3)c2)CC1 [drawing 469]
- EC50 [1]: 25 µM
- EC50 [2]: 40 µM
- EC50 [3]: 20 µM
- EC50 [4]: 35 µM

Compound: CC(C)(C)OC(=O)NC1CCN(C(=O)c2ccc(Nc3ncc(Cl)c(Nc4ccc5ncsc5c4)n3)cc2)CC1 [drawing 446]
- EC50 [1]: 9 µM
- EC50 [2]: 18 µM
- EC50 [3]: 15 µM
- EC50 [4]: 80 µM

Compound: O=C1NN=C(c2ccccc2)/C1=C/Nc1ccccc1 [drawing 368]
- EC50 [2]: > 100 µM
- EC50 [3]: > 100 µM

Compound: O=C(O)c1ccc(Nc2ncc(Cl)c(Nc3ccc4ncsc4c3)n2)cc1 [drawing 445]
- EC50 [1]: 100 µM
- EC50 [2]: 18 µM
- EC50 [3]: 5 µM
- EC50 [4]: > 100 µM

Compound: Nc1cccc(C2CCN(c3nccc(Nc4ccc5ncsc5c4)n3)CC2)c1 [drawing 439]
- EC50 [1]: 5 µM
- EC50 [2]: 15 µM
- EC50 [3]: 6 µM
- EC50 [4]: 14 µM

Compound: CC(C)c1nc(Nc2ccc(C(=O)N3CCOCC3)cc2)nc(Nc2ccc3ncsc3c2)n1 [drawing 460]
- EC50 [1]: > 100 µM
- EC50 [2]: 80 µM
- EC50 [3]: 35 µM
- EC50 [4]: > 100 µM

Compound: C1=C(c2cccc(Nc3nccc(Nc4ccc5ncsc5c4)n3)c2)CCNC1 [drawing 441]
- EC50 [1]: 25 µM
- EC50 [2]: 22 µM
- EC50 [3]: 13 µM
- EC50 [4]: 40 µM

Compound: CC(C)c1nc(Nc2ccc(C(=O)N3CCCC3)cc2)nc(Nc2ccc3ncsc3c2)n1 [drawing 457]
- EC50 [1]: 22 µM
- EC50 [2]: 20 µM
- EC50 [3]: 4 µM
- EC50 [4]: 30 µM

Compound: CC(C)c1nc(Nc2ccc3ncsc3c2)nc(N2CCOCC2)n1 [drawing 452]
- EC50 [1]: 80 µM
- EC50 [2]: 80 µM
- EC50 [3]: 100 µM
- EC50 [4]: > 100 µM

Compound: c1cc(Nc2nccc(Nc3ccc4ncsc4c3)n2)cc(C2CCNCC2)c1 [drawing 440]
- EC50 [1]: 25 µM
- EC50 [2]: 18 µM
- EC50 [3]: 15 µM
- EC50 [4]: 35 µM

Compound: O=C(CCn1ccc2ccccc21)Nc1ccc(F)cc1 [drawing 338]
- inhibition at 10 µM (ROS): 23.2%

Compound: CC(C)c1nc(Nc2ccc(C(=O)NC3CCCCC3)cc2)nc(Nc2ccc3ncsc3c2)n1 [drawing 319]
- IC50 (ROS): 760 nM
- inhibition at 5 µM (ROS): 98.8%

Compound: Cc1c(Br)c([N+](=O)[O-])nn1[C@H](C)C(=O)Nc1c(C)n(C)n(-c2ccccc2)c1=O
- IC50 (ROS): > 100000 nM
- inhibition at 10 µM (ROS): 34.1%

Compound: Cc1cccc(Nc2nccc(Nc3cccc(C(=O)N(C)CCCN(C)C)c3)n2)c1 [drawing 288]
- inhibition at 5 µM (ROS): 98.6%

Compound: CC(C)c1nc(Nc2ccc(C(=O)NCC3CCCCC3)cc2)nc(Nc2cccc(Cc3nc4ccccc4s3)c2)n1 [drawing 454]
- EC50 [1]: > 100 µM
- EC50 [2]: > 100 µM
- EC50 [3]: > 100 µM
- EC50 [4]: > 100 µM

Compound: COc1ccc(N/C=C2\C(=O)NN=C2c2ccccc2)cc1 [drawing 232]
- inhibition at 5 µM (ROS): 34.2%

Compound: O=C(NCCc1ccc(F)cc1)c1cccc(Nc2nccc(Nc3ccc4ncsc4c3)n2)c1 [drawing 235]
- IC50 (ROS): 130 nM
- Kinase Inhib. 5 uM (%) (ROS): 100.68%

Compound: CCOc1nc(Nc2cccc(Cc3nc4ccccc4s3)c2)nc(C(C)C)n1
- IC50 (ROS): 9260 nM

Compound: COc1ccc(NC(=O)CCn2ccc3ccccc32)cc1 [drawing 337]
- inhibition at 10 µM (ROS): 29.5%

Compound: CC(C)c1nc(Nc2ccc(N)cc2)nc(Nc2cc(C3CC3)[nH]n2)n1 [drawing 324]
- IC50 (ROS): > 5000 nM
- inhibition at 5 µM (ROS): 20.4%

Compound: Clc1ccc(CNc2cc(-c3ccccc3)ncn2)cc1 [drawing 246]
- inhibition at 10 µM (ROS): 21.2%

Compound: COc1ccccc1NC(=O)C1=C(C)Nc2ncnn2C1c1ccc[nH]1 (centres unmarked)
- Kinase Inhib. 5 uM (%) (ROS): 40.40%

Compound: O=C1NN=C(c2ccccc2)/C1=C/Nc1ccccc1 [drawing 231]
- inhibition at 5 µM (ROS): 30.6%

Compound: Cn1c(=O)c2c(nc3n(CCO)c(-c4ccccc4)cn23)n(C)c1=O [drawing 265]
- Kinase Inhib. 5 uM (%) (ROS): 26.87%

Compound: COc1ccc(NC(=O)CC2=Nc3cccc4cccc(c34)NC2=O)cc1 [drawing 345]
- inhibition at 10 µM (ROS): 26.5%

Compound: Cc1cc(=O)n2nc(CC(=O)c3ccccc3)[nH]c2n1
- inhibition at 5 µM (ROS): 33.2%

Compound: CC(C)c1nc(Nc2ccc(C(=O)NCC3CCCCC3)cc2)nc(Nc2cccc(Cc3nc4ccccc4s3)c2)n1 [drawing 317]
- IC50 (ROS): > 5000 nM
- inhibition at 5 µM (ROS): 25.3%

Compound: Cc1cc(C)c(NC(=O)c2cc3ccccc3c(=O)s2)c(-c2cc(C)[nH]n2)c1 [drawing 263]
- Kinase Inhib. 5 uM (%) (ROS): 21.55%

Compound: CN(C)CC(C)(C)CNC(=O)c1cccc(Nc2nccc(Nc3ccc4ncsc4c3)n2)c1 [drawing 276]
- IC50 (ROS): 271 nM
- inhibition at 5 µM (ROS): 101%

Compound: CC(C)c1nc(Nc2ccc(Br)cc2)nc(Nc2ccc3ncsc3c2)n1
- IC50 (ROS): 840 nM

Compound: O=C(c1cccc(Nc2nccc(Nc3ccc4ncsc4c3)n2)c1)N1CCCCCC1 [drawing 284]
- IC50 (ROS): 450 nM
- inhibition at 5 µM (ROS): 100%

Compound: CC(C)c1nc(Nc2ccc(C(=O)N3CCN(C)CC3)cc2)nc(Nc2ccc3ncsc3c2)n1 [drawing 321]
- IC50 (ROS): 3890 nM
- inhibition at 5 µM (ROS): 90.7%

Compound: O=C(NCC(c1cccs1)S(=O)(=O)c1ccc(F)cc1)c1ccccc1 (centres unmarked) [drawing 297]
- IC50 (ROS): 480 nM
- inhibition at 5 µM (ROS): 85.1%

Compound: CCc1cc(Br)ccc1NC(=O)CCn1ccc2ccccc21 [drawing 341]
- inhibition at 10 µM (ROS): 20.8%

Compound: Cc1ccc(Cn2c(NCc3nc4ccccc4n3C)nc3ccccc32)cc1 [drawing 218]
- inhibition at 10 µM (ROS): 20.2%

Compound: O=C(NNc1nc2ccccc2nc1Cc1ccccc1)c1cccc(Cl)c1 [drawing 229]
- inhibition at 10 µM (ROS): 24.3%

Compound: Cc1cccc(C(=O)n2nc(-c3ccco3)nc2NCc2ccccc2)c1 [drawing 294]
- Kinase Inhib. 5 uM (%) (ROS): 25.09%

Compound: CC(C)c1nc(Nc2ccc(C(=O)NCc3ccccc3)cc2)nc(Nc2ccc3ncsc3c2)n1 [drawing 322]
- IC50 (ROS): 3690 nM
- inhibition at 5 µM (ROS): 97.4%

Compound: CC(=O)N[C@@H]1CCN(C(=O)c2cccc(Nc3cc(N(C)c4cccc(C)c4)ncn3)c2)C1 [drawing 241]
- inhibition at 5 µM (ROS): 29.6%

Compound: Cc1ccc(CNC(=O)c2cccc(Nc3nccc(Nc4ccc5ncsc5c4)n3)c2)o1 [drawing 282]
- IC50 (ROS): 196 nM
- inhibition at 5 µM (ROS): 99.1%

Compound: Cc1nc2cc(C(=O)N[C@H](c3ccccc3)c3cccnc3)ccc2[nH]1 [drawing 261]
- inhibition at 5 µM (ROS): 23.6%

Compound: CC(C)c1nc(Nc2ccc(C(=O)NCc3ccccc3)cc2)nc(Nc2cccc(Cc3nc4ccccc4s3)c2)n1 [drawing 316]
- IC50 (ROS): > 5000 nM
- inhibition at 5 µM (ROS): 45.1%

Compound: O=C1c2ccccc2C(=O)N1C[C@H](O)Cn1nc(-c2cccs2)c2ccccc2c1=O [drawing 268]
- Kinase Inhib. 5 uM (%) (ROS): 20.74%

Compound: NC(=O)c1c(NC(=O)[C@H]2CC(=O)N(c3ccccc3)C2)sc2c1CCCC2 [drawing 219]
- IC50 (ROS): 1300 nM
- inhibition at 10 µM (ROS): 41.5%

Compound: CC(C)c1nc(Nc2ccc(C(=O)N3CCCC3)cc2)nc(Nc2ccc3ncsc3c2)n1 [drawing 320]
- IC50 (ROS): 1880 nM
- inhibition at 5 µM (ROS): 92.5%

Compound: COc1ccc(Nc2nc(N(C)CCO)nc3c2cnn3-c2ccccc2)cc1 [drawing 250]
- Kinase Inhib. 5 uM (%) (ROS): 41.55%

Compound: O=C(NCc1ccco1)c1cccc(Nc2nccc(Nc3ccc4ncsc4c3)n2)c1 [drawing 239]
- IC50 (ROS): 160 nM
- inhibition at 5 µM (ROS): 101%

Compound: O=c1nc2[nH]c3ccc([N+](=O)[O-])cc3nc-2c(=O)[nH]1
- Kinase Inhib. 5 uM (%) (ROS): 26.23%

Compound: CC(C)c1nc(Nc2ccc(C(=O)N3CCCCC3)cc2)nc(Nc2ccc3ncsc3c2)n1 [drawing 318]
- IC50 (ROS): > 5000 nM
- inhibition at 5 µM (ROS): 58.6%

Source: patent US9963452B2, “Methods, compounds, and compositions for inhibition of ROS” (AUGUSTA PHARMACEUTICALS INC., priority 2013, dated 2018)
